The nature of test [1]: Phase 2a ATI-450 plus MTX in moderate to severe rheumatoid arthritis: clinical activity (DAS28-CRP, ACR20/50/70, joint counts, hsCRP). The class given is in vivo, human. As to conditions: 50 mg BID plus MTX.
Test [2] has as its system regulatory T cells (CD45+ CD3+ CD4+ Foxp3+). Description: Murine collagen-induced arthritis model, T regulatory cells in popliteal lymph nodes. The class given is in vivo, mouse. Particulars: 1000 ppm chow from day 18, murine CIA model. The protocol:
In this model DBA/1 mice (12/group) were immunized with bovine collagen/CFA to induce arthritis. […] At day 21, mice were boosted with bovine collagen/CFA, and at day 35 the study was terminated. Popliteal lymph nodes were dissected from mice, cleaned of any trace fat, mechanically dissociated and filtered through 70 micron cell strainers. Live lymphocytes were counted using a Moxi GO II cell counter (Orflo). One million lymphocytes were plated, treated with Fc block, and stained with antibodies targeting surface receptors (including CD45, CD3, CD4) along with a fixable live/dead dye. Cells were fixed/permeabilized (eBioscience Transcription Factor Staining kit) and stained with anti-Foxp3 antibody. The cells were collected via flow cytometry analysis on an Attune NxT instrument. T-regulatory cells were gated as lymphocyte-sized, live, CD45+ CD3+ CD4+ Foxp3+ cells.

Test [3] has as its system IL-10. The experiment in a line: Ex vivo stimulated IL-10 in blood of subjects dosed 80 mg or 120 mg. Particulars: 80 mg or 120 mg BID. The arrangement: species or system human.
Method: Methods: Safety, pharmacokinetics (PK) and pharmacodynamics (PD) were assessed in two cohorts of subjects in a randomized, observer-blind, placebo-controlled study in male and female healthy subjects aged 18-55 (n=77). The study consisted of twenty (20) subjects enrolled into 2 cohorts. […] The final dose was administered in the morning on Day 7. Blood samples were obtained Day 1—before dosing, Day 1—4 hours after dosing and Day 1—12 hours after dosing and Day 7—before dosing, Day 7—4 hours after dosing, day 7—12 hour after dosing and Day 7—24 hours after dosing for each subject.
For test [4], the system named is TNF-α. Description: LPS stimulated TNF-α production in human whole blood. The class given is cell-based. The method, then: Compounds were serially diluted in 100% DMSO (Sigma-Aldrich, D2650) followed by a 50× dilution into DMEM/10% FBS (Gibco, 11965/26140). Vehicle consisted of DMSO at a final assay concentration of 0.1%. Pin tools (V&P Scientific, Inc., VP246) were placed in the wells and the plate was placed at 37° C. with 5% CO2, with gently shaking for five minutes, then pin tools were removed and saved. […] Pin tools were placed in the wells in the same orientation as the previous step and gently shook for five minutes at 37° C. with 5% CO2, then removed. […] The plasma was harvested and assayed for TNF-α, IL-1β, and IL-6 using Meso Scale Discovery Technology V-plex human cytokine kits according to the kit protocol. The kit plates were read using an MSD Sector S 6000 instrument. Calculations to establish cytokine calibration curves and to determine analyte concentrations in the samples were carried out using the MSD DISCOVERY WORKBENCH® analysis software.

For test [5], the system named is TNF-α. Description: Mouse neutrophil (mPMN) IL-1α stimulated TNF-α. In kind it is cell-based. The protocol: Biosynthesis of […] was quantified using MSD technology. […] Cells and compound were stimulated with mouse IL-1α to a final concentration of 10 ng/mL and incubated for 4 hours at 37° C. Supernatants were collected and TNF-α levels quantitated using MSD technology.

For test [6], the system named is TNF-α. The experiment in a line: Ex vivo LPS-stimulated TNF-α in blood of dosed healthy subjects, PK/PD inhibitory Emax model. The arrangement: species or system human. The protocol: Blood samples of 10 mL were collected for PD analysis. For the SAD cohorts, blood was collected before dosing and 1, 12, and 24 hours after dosing. For the MAD cohorts, on day 1 blood was collected before the morning dose and 4 and 12 hours after the morning dose (prior to the evening dose); on day 7, blood was collected before the morning dose and 4 and 12 hours after the morning dose.
Additional details of the assays for analyzing p-HSP27 and cytokines are included in the Supplementary Information.
Pharmacodynamics. PD data analysis was conducted using Microsoft Excel 2010 (Microsoft, Redmond, WA), Meso Scale Discovery Workbench® analysis software (Rockville, MD), and Phoenix WinNonlin, version 8.2.
Sample Preparation for Cytokine Analysis. For each sample, 180 μL aliquots were transferred into 7 wells of a round bottom 96 well tissue culture polystyrene low evaporation plate. […] No outer wells on the plates were used and all wells surrounding the samples contained 200 μL of phosphate buffered saline.
DMSO was added to all wells in groups ‘A’ and ‘C’ to a final concentration of 0.1% ([…] of a 2% DMSO solution in DMEM containing 10% FBS and 1% penicillin/streptomycin/glutamine). […] Samples were mixed gently for 30 seconds on a plate shaker using pin tools, then placed in an incubator at 37° C./5% CO2 for 1 hour.
Samples in groups ‘A’ and ‘B’ were stimulated with lipopolysaccharide at a final concentration of 100 ng/mL. A stock solution of lipopolysaccharide at 1 mg/mL in DMEM containing 10% FBS and 1% penicillin/streptomycin was diluted to […] in DMEM containing 10% FBS and 1% penicillin/streptomycin, and […] of this working solution was added per well of blood for all samples in groups ‘A’ and ‘B’. […] of DMEM containing 10% FBS only was added per well of blood for all samples in group ‘C’ (unstimulated samples). Samples were mixed gently for 30 seconds on a plate shaker using pin tools, then placed in an incubator at 37° C./5% CO2 for 5 hours.
Following the incubation, the plates were removed from the incubator and sealed with adhesive clear plate seals. The plates were then centrifuged for 10 minutes at 1800×g at room temperature. […] of plasma was removed from each well and transferred to a 96-well polypropylene round bottom master plate, which was then sealed and frozen at −80° C. until all samples from the respective cohort were generated. Once all samples from a given cohort were generated, the samples were analyzed for cytokine (TNF-α, IL-1b, IL-6, and IL-8) production using Meso Scale Discovery Technology.
Analysis of Cytokine Levels Using Meso Scale Discovery Technology. All lipopolysaccharide plasma samples were analyzed for cytokine production with a V-Plex Human Proinflammatory Panel II (4-Plex) Kit from Meso Scale Discovery (Rockville, MD). The master plates containing the plasma samples were thawed on ice, and a daughter plate consisting of a 25-fold dilution of each plasma sample (3 μL of plasma plus 72 μL of Meso Scale Discovery Diluent 2) was generated for each master plate. The diluted plasma samples from the daughter plates were used in the cytokine analysis. The Meso Scale Discovery 4-plex plates were washed 3 times with 150 μL/well of wash buffer (1×KPL phosphate buffered saline with Tween 20 from SeraCare [Milford, MA]). Prepared calibrators and the samples from the daughter plates were added to the washed Meso Scale Discovery 4-plex plates at 50 μL/well. The 4-plex plates were sealed and shaken overnight at 4° C.
After the overnight incubation, the samples were removed by decanting. The 4-plex plates were then washed 3 times with 150 μL/well of wash buffer. […]

The structures appear in SMILES notation.

Take `Cc1cnc(-c2ccnc(C(C)(C)O)n2)cc1-n1c(C)cc(OCc2ncc(F)cc2F)c(Cl)c1=O` (single isomer, unassigned) [ATI-450, 3-chloro-4-((3,5-difluoropyridin-2-yl)methoxy)-2′-(2-(2-hydroxypropan-2-yl)pyrimidin-4-yl)-5′,6-dimethyl-2H-[1,4′-bipyridin]-2-one]: the “swollen and tender joint count over time” value in test [1] (84 days) was “sustained decrease in swollen joint count and tender joint count”. Moreover, in test [1] (through day 84), the “DAS28-CRP change from baseline over time” value is “rapid and sustained onset of efficacy”; the “hsCRP change from baseline over time” value is “rapid and sustained reduction in hsCRP”. Besides, the “median reduction from baseline in hsCRP” value in test [1] (throughout the 12 weeks) is recorded as above 40%. In test [1] (week 12), the “mean change from baseline in DAS28-CRP (reduction)” value came to 2.0. For the same compound, in test [1] (week 12, 15 subjects), the ACR20 response was found to be 60%, the ACR50 response turned out to be 33%, the ACR70 response was found to be 20% and the “proportion of subjects with DAS28-CRP <2.6 (remission)” value is 20%. The “proportion of subjects with DAS28-CRP ≤ 3.2 (low disease activity or remission)” value in test [1] (week 12, 15 subjects) is on record as 40%. For the same compound, in test [2], the “number of regulatory T cells” value is “significantly increased the number of regulatory T cells”. Further, the IL-10 modulation in test [3] is on record as 25-30%. The IC50 in test [4] (Human Whole Blood, LPS, 100 ng/mL, 4 or 24 hr, read-out: IC50, TNF-α) was 29 ± 9 nM. Also, the IC50 in test [4] (human whole blood, LPS 100 ng/mL, read-out: IC50, LPS-stimulated TNF-α) lay within 10 to 100 nM. Besides, the IC50 in test [5] (Mus musculus, Neutrophil, mPMN, IL-1α, 10 ng/mL, 4 hr) turned out to be 5 nM. Further, the “IL-1α mediated TNF-α signaling in neutrophils” value in test [5] (mouse IL-1α 10 ng/mL, 4 hours) is reported as “dose dependently inhibits”. For the same compound, the “TNF-α inhibition versus baseline” value in test [6] (50 mg BID MAD cohort) is reported as “up to 92.7%”. In addition, in test [6] (50 mg BID, day 7), the “Cmax (Multiple of IC80)” value was 3.5x and the “Ctrough (Multiple of IC80)” value was determined as 1.4x. In test [6] (Homo sapiens, calculated from IC50, combined SAD and MAD data, read-out: IC80, plasma concentration at 80% of maximal inhibition), the IC80 was 0.0626 µg/mL. The IC50 in test [6] (Homo sapiens, inhibitory Emax model, combined SAD and MAD data, read-out: IC50, plasma concentration at half maximal inhibition) turned out to be 0.0156 µg/mL. Besides, the “IC80, plasma concentration at 80% of maximal inhibition” value in test [6] (calculated from IC50, combined SAD and MAD data) was 0.0626 µg/mL.

These data come from patent publication US11844801B2, “Oral compositions of MK2 pathway inhibitor for treatment of immune conditions” (priority 2020, dated 2023).
